Consider 14 compounds from US20050203082A1, “Combination therapy with inhibitors of inducible nitric oxide synthase and alkylating agents” (priority 2003, published 2005).

The subject of one data set is human cartilage explants. In words: Human cartilage explant assay (IL-1 induced nitrite production). Format: cell-based. The conditions noted are these: inhibition of nitrite production, IL-1 stimulated explants. The source says: Bone pieces are rinsed twice with Dulbecco's Phosphate Buffered Saline (GibcoBRL) and once with Dulbecco's Modified Eagles Medium (GibcoBRL) and placed into a petri dish with phenol red free Minimum Essential Medium (MEM) (GibcoBRL). […] The culture media was either a custom modification of Minimum Essential Medium(Eagle) with Earle's salts (GibcoBRL) prepared without L-Arginine, without L-Glutamine and without phenol red or a custom modification of serumless Neuman and Tytell (GibcoBRL) medium prepared without L-arginine, without insulin, without ascorbic acid, without L-glutamine and without phenol red. Both are supplemented before use with 100 μM L-Arginine (Sigma), 2 mM L-glutamine, 1× HL-1 supplement (BioWhittaker), […] ascorbic acid (Sigma) and 150 pg/ml recombinant human IL-1[…] (RD Systems) to induce nitric oxide synthase. Compounds are then added in 10 μL aliquots and the explants incubated at 37° C. with 5% CO2 for 18-24 hr. The day old supernatant is then discarded and replaced with fresh culture media containing recombinant human IL-1β and compound and incubated for another 20-24 hr. […] All samples are done in quadruplicate. Unstimulated controls are cultured in media in the absence of recombinant human IL-1{tilde over (□)} IC50 values (Table I) are determined from plotting the percent inhibition of nitrite production at 6 different concentrations of inhibitor.

The subject of another data set is recurrent GBM. The note with it: recurrent GBM after resection and radiotherapy; cited from earlier work.
Data set [1] deals with inducible nitric oxide synthase activity in vivo. Description: In vivo assay: LPS-induced plasma nitrite/nitrate in endotoxin-treated rats. The note with it: oral administration, plasma nitrite/nitrate 5 hr post-treatment; for ED50: Rattus norvegicus. Further details: species or system rat. The source says:
Plasma nitrite/nitrate levels can be determined 5 hr post-treatment.

In data set [2] the test system is C6 cells overexpressing iNOS. The conditions noted are these: concentration-dependent; cited from earlier work.

SMILES strings stand for the structures. pIC50: −log10 of the molar value. Where a name gives a salt, the structure may show the parent alone.

As for `CC(=N)NCC(F)=CCC[C@H](N)C(=O)O` (mixture of isomers) [Example B, (2S,5E/Z)-2-amino-6-fluoro-7-[(1-iminoethyl)amino]-5-heptenoic acid, dihydrochloride], in the data set with human cartilage explants (Homo sapiens), the pIC50 (as a rule, −log10 of the IC50, conventionally taken in molar units) was 6.70.
With `O=NN(CCCl)C(=O)NCCCl` [BCNU, 1,3-bis(β-chloroethyl)-1-nitrosourea], the response rate result in the data set with recurrent GBM is recorded as “about 30%”.
Take `O=NN(CCCl)C(=O)NC1CCCCC1` [CCNU, urea, N-(2-chloroethyl)-N′ cyclohexyl-N-nitroso-(9CI)]: the response rate result in the data set on recurrent GBM is “about 30%”.
Compound `CC(=N)NC/C(F)=C\CC[C@H](N)C(=O)O` [Example A, (2S,5E)-2-amino-6-fluoro-7-[(1-iminoethyl)amino]-5-heptenoic acid, dihydrochloride] had a pIC50 with human cartilage explants (Homo sapiens) of 7.00. In data set [1], the 50% effective dose (ED50) (as a rule, the dose that gives a 50% effect, or the effect in half of the subjects) was below 0.1 mg/kg. The “ED50 in endotoxin-treated rats” value in data set [1] (dihydrochloride) is given as below 0.1 mg/kg.
The compound `CC(=N)NC/C(F)=C/CC[C@H](N)C(=O)O` [Example D, (2S,5Z)-2-amino-6-fluoro-7-[(1-iminoethyl)amino]-5-heptenoic acid, trihydrochloride, dihydrate] gave a pIC50 with human cartilage explants (Homo sapiens) of 5.60. For the same compound, the ED50 in data set [1] was above 10 mg/kg.
Regarding `CC(=NO)NC/C(F)=C\CC[C@H](N)C(=O)O` [Example G, (2S,5E)-2-amino-6-fluoro-7-[(1-hydroximinoethyl)amino]-5-heptenoic acid], the melting point (usually the temperature, or range, at which the solid turns liquid) fell in the range of 198 to 200 °C. For the same compound, the 50% effective dose (ED50) in data set [1] is below 0.1 mg/kg.
In data set [1], `CC(=N)NC/C(F)=C\CC[C@H](N)C(=O)Nc1nnn[nH]1` [Example H, (2S,5E)-2-amino-6-fluoro-7-[(1-iminoethyl)amino]-N-(1H-tetrazol-5-yl) 5-heptenamide, dihydrochloride] registered a median effective dose (ED50) below 0.3 mg/kg.
`CC(=N)NC/C(F)=C\CC[C@](C)(N)C(=O)O.Cl.Cl` [Example HH, (2S,5E)-2-amino-2-methyl-6-fluoro-7-[(1-iminoethyl)amino]-5-heptenoic acid, dihydrochloride] gave a pIC50 in the data set on human cartilage explants (Homo sapiens) of 6.40. Besides, the 50% effective dose (ED50) in data set [1] was determined as 0.4 mg/kg.
Compound `COC[C@](N)(CSCCNC(C)=N)C(=O)O` [Example J, 2-[[[2-[(1-Iminoethyl)amino]ethyl]thiolmethyl]-O-methyl-D-serine, dihydrochloride] had a pIC50 in the data set with human cartilage explants of 5.09.
In the data set on human cartilage explants (Homo sapiens), `CC(=N)NC/C=C\CC[C@](C)(N)C(=O)O` [Example LL, (2S,5Z)-7-acetimidoylamino-2-amino-2-methyl-hept-5-enoic acid] showed a pIC50 of 6.10. In data set [1], this compound showed an ED50 of 0.3 mg/kg.
Taken in the same sequence, the figures for `Cl.N=C1CCCC[C@H](CCCC[C@@H](N)C(=O)O)N1.O.O.O` [Example V, (αR,2S)-α-aminohexahydro-7-imino-1H-azepine-2-hexanoic acid, trihydrate hydrochloride] were above 5.00 and below 3 mg/kg.
In the data set with human cartilage explants, `N=C1CCCC[C@H](CCCC[C@H](N)C(=O)O)N1` [Example X, (αS,2S)-α-aminohexahydro-7-imino-1H-azepine-2-hexanoic acid, trihydrate hydrochloride] had a pIC50 above 5.00.
For `N=C1CCCC[C@H](CCCC[C@H](N)C(=O)O)N1` [Example Z, (αS,2S)-α-aminohexahydro-7-imino-1H-azepine-2-hexanoic acid, trihydrate hydrochloride], the negative logarithm of the IC50 (pIC50) in the data set with human cartilage explants (Homo sapiens) is above 5.00.
As for `COC(=O)[C@@H](N)CCCNC(=N)N[N+](=O)[O-]` [L-NAME], in data set [2], the BCNU toxicity entry is “restoration of BCNU toxicity” and the nitrite levels result is “reduced the nitrite levels”.
